Assays:
NUAK2 (h) = target: T1, NUAK2 (h) (Homo sapiens, UniProt Q9H093); assay: NUAK2 enzymatic assay (radiometric, Eurofins); assay type: biochemical; conditions: full-length recombinant enzyme
T1 construct: This assay was done radiometrically using full-length, recombinant enzyme; purchased Eurofins
T1 sequence (Q9H093 1-628): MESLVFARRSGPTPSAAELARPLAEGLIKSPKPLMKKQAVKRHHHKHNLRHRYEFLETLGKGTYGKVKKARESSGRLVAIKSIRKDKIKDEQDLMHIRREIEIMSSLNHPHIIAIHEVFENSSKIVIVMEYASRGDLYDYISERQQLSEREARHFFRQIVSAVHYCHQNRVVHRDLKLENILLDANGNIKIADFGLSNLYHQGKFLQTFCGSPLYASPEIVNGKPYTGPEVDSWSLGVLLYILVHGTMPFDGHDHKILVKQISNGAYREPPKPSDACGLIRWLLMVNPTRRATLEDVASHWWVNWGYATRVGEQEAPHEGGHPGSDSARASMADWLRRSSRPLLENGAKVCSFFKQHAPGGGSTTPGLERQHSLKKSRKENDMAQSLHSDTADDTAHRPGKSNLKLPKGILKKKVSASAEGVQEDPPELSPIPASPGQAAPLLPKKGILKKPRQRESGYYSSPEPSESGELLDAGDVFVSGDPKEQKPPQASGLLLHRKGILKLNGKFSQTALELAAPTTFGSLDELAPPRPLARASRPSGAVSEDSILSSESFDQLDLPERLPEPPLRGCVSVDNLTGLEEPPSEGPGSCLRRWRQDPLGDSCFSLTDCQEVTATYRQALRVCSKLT
Procedure, shortened: (§1)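 Full-length recombinant NUAK2 incubated 40 min at room temperature in 8 mM MOPS pH 7.0, 0.2 mM EDTA, 10 mM magnesium acetate, 300 μM peptide substrate and 33P-ATP. Stopped with 0.5% phosphoric acid; filter-bound label counted by scintillation. IC50 reported as ranges; NUAK1 and Aurora A served as counter-screens.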

NUAK1 = target: T2, NUAK1 (Homo sapiens, UniProt O60285); assay: Counter-screen against NUAK1; assay type: biochemical
T2 sequence (O60285 1-661): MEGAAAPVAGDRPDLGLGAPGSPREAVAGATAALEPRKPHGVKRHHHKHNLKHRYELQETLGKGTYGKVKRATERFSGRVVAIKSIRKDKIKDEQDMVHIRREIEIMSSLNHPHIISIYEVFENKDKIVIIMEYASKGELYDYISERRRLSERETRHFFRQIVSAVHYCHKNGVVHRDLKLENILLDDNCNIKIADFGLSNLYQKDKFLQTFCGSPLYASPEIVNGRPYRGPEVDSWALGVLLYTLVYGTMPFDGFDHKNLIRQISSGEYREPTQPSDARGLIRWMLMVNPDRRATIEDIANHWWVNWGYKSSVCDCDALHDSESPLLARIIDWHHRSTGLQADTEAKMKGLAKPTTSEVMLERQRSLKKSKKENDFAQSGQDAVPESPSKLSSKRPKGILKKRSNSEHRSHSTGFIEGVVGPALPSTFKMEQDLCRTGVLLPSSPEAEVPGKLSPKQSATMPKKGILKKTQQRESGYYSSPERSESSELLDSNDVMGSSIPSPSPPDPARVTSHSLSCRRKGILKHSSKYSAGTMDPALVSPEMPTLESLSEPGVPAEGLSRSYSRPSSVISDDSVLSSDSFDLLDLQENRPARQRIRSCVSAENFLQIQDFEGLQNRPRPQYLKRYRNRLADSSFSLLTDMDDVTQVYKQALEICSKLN
Procedure, shortened: as §1

Aurora A = target: T3, Aurora A (Homo sapiens, UniProt O14965); assay: Counter-screen against Aurora A; assay type: biochemical; conditions: read-out: AUR-A (IC50)
T3 sequence (O14965 1-403): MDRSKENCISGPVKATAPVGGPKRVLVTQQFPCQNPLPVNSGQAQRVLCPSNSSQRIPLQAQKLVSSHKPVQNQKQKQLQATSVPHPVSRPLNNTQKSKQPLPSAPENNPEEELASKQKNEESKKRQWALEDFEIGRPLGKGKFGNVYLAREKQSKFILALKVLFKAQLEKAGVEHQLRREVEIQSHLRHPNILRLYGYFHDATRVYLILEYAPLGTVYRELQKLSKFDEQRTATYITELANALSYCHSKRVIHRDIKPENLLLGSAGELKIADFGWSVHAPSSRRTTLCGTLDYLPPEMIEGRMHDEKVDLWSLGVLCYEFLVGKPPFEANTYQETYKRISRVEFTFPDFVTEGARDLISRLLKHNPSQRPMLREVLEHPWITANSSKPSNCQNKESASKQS
Procedure, shortened: as §1

[1] = tested on: Clover-YAP expressing MDA-MB-231 cells; assay: Cell-based YAP/TAZ localization assay (live imaging of Clover-YAP); conditions: MDA-MB-231 breast cancer cell line, FIG. 1
Protocol: Compounds of the application were tested for their ability to inhibit localization of YAP/TAZ to the nucleus of cells using an assay generally described in Nature Communications, 2018, 9:3510. Live cell imaging of Clover-YAP expressing MDA-MB-231 cells was carried out using a custom WAVE-FX-X1 spinning disc confocal system (Quorum Technologies) with a modified Yokogawa CSU-X1 scanhead on an AxioObserver Z1 inverted microscope (Carl Zeiss) with a ×40 NA 1.2 Plan Apochromat (Carl Zeiss) objective. Cells were plated in a 35 mm glass-bottom dish (Mat-Tek, P35G-1.5-14-C) and were maintained in a stage-top incubator at 37° C. and 5% CO2 during imaging. Cells were cultured in phenol-red free RPMI medium (Thermo Fisher Scientific, 11835030) with 5% FBS and 200 nM SiR-DNA (Spirochrom, SC007) was added 1 h prior to imaging to visualize the nuclei. Localization of Clover-YAP was monitored every 10 min for 2 h. Volocity software was used for image acquisition and processing.

MDA-MB-231 cells = assay: Tumor cell growth inhibition assay (ATPlite, 5 days); assay type: cell-based; conditions: Homo sapiens, 120 h; breast tumor cell line MDA-MB-231, 5 days
Protocol: MDA-MB-231 cells were seeded into a 384-well plate at 1,000 cells/well in 50 μl medium (Alpha-MEM containing 10% FBS, […] Normocin, Invivogen and […] Gentamycin, Invitrogen). Plates were then incubated overnight for the cells to attach. An HP D300 digital dispenser was used to dose cells with DMSO or test compounds across a 16-point range of concentrations (high dose of 10 uM to low dose of 5 nM). Plates were incubated in a humidified 5% CO2 incubator at 37° C. After 5 days, plates were removed from the incubator and equilibrated to room temperature. An equal volume of ATPlite assay reagent was then added to each well, and samples processed according to manufacturer's instructions (Perkin Elmer). Luminescent signals were then measured using an Envision plate reader equipped with a US-Luminescence detector.

Compound: O=C1NCc2cccc(Nc3nc(Nc4ccc(N5CCNCC5)cc4OC(F)F)ncc3C(F)(F)F)c21 [Compound I-34, 7-((2-((2-(difluoromethoxy)-4-(piperazin-1-yl)phenyl)amino)-5-(trifluoromethyl)pyrimidin-4-yl)amino)isoindolin-1-one]
- IC50 (NUAK2 (h)): 11 to 100 nM
- IC50 (NUAK1): 11 to 100 nM
- IC50 (Aurora A): > 1000 nM
- Inhibition of nuclear localization of YAP/TAZ [1]: potently inhibit nuclear localization of YAP/TAZ
- IC50 (MDA-MB-231 cells): 32 nM
